Measured values as given in patent US20230416168A1 (EUROCHEM ANTWERPEN, priority 2020, published 2023).
Entries after “also recorded” stand apart in the source; their conditions may differ.

Experiments:
Nitrosospira multiformis = test: Nitrification inhibition assay with Nitrosospira multiformis (nitrite level after 24 h); format: cell-based; settings: for IC50 / activity at 100 µM: Nitrosospira multiformis; for IC50: 8-point dose response, 2 to 100 μM, read-out: IC50; for activity at 100 µM: tested concentration 100 μM, 24 h, normalized to DMSO (100%) and 100 μM DMP (0%), read-out: Nitrification at tested concentration (0 = maximum activity)
Method: (§1) The compounds of formula (I) and (II) and (III)/(IV) were tested for their nitrification inhibition effect in two screens, using assays with the nitrifying bacteria N. europaea and N. multiformis. In practice, ammonium and candidate nitrification inhibitors (at 100 μM) were added to a dense bacterial culture in multiwell culture plates and after 24 h of incubation, the nitrite level was measured. To normalize for differences between batches of cultures and multiwell culture plates, for each well a relative nitrification was calculated that was normalized towards both the negative and positive controls (see “Material and Methods” below for full details).
(§2) Nitrite (NO2−) was measured using the Griess reagent (Product number: G4410, Griess reagent (modified), Sigma-Aldrich). Equal volumes of the sample or a diluted sample and the Griess reagent were mixed a transparent flat bottom multi-well plate and incubated in the dark at room temperature for 10 minutes. Absorbance values at 540 nm were measured spectrophotometrically (EnVision, Perkin Elmer®) and used to calculate the [NO2−] by use of a standard curve.
Cultures were first 5 times overconcentrated in fresh 181-medium by centrifugation (4000 rpm, 15 min, 5° C.) in 50 mL centrifuge tubes (Cat. No. 430829, CentriStar™ Conical Centrifuge Tubes, Corning®). Per batch, all the cultures were pooled in one sterile Schott bottle and subsequently dispensed in 384-well plates (Cat. No. 781086, CELLSTAR® plate, Greiner BioOne; 50 μl/well) by use of a dispenser (Multidrop™ Combi Reagent Dispenser, Thermo Scientific™) that was first flushed with 181-medium. 0.5 μl of 99.99% DMSO (negative control—final concentration […] was added to the outer two columns on the left side of the plate and 0.5 μl of 10 mM DMP (3,4-dimethylpyrazole, positive control—final concentration 100 μM) was added to the outer two columns on the right side manually. Finally, 0.5 μl of candidate nitrification inhibitors (5 mM stock solutions in 99.99% DMSO—final concentration 50 μM) were added to the central wells using a pin tool on a Tecan robot (Freedom EVO®, Tecan). In between additions, the pins were washed in sequence with 99.5% DMSO, MilliQ water and 100% ethanol and air-dried. All plates were separately wrapped in Parafilm. Stacks of 4 plates were put on top of a 96-well plate filled with 100 μl MilliQ per well, covered with aluminum foil and shaken (±150 rpm) at 30° C. 24 h later, NO2− production was assessed. For this, the samples were first 100 times diluted by pipetting 3 μl of samples into 300 μl fresh growth medium in intermediate plates (Cat. No. 353077, Falcon® 96-well Clear Round Bottom Microplate, Corning®) to then mix 15 μl of the diluted samples with 15 μl Griess reagent in the wells of a transparent, flat bottom 384-well plate (Cat. No. X^7001, Low Profile Microplate, Molecular Devices) that was measured spectrophotometrically at 540 nm (EnVision, Perkin Elmer®).
(§3) To assess the efficacy of the compounds (in terms of nitrification inhibition) and to enable comparison between plates and batches of cultures, we calculated the relative nitrification. More in detail, all nitrite results were normalized towards both a negative control, containing no compound, and a positive control, containing the benchmark (100 μM DMP), using Equation 1. This normalization was done per multi-well plate and each plate contained 32 positive and 32 negative controls.
IC50 values, that is the concentration that inhibits 50% of the nitrification, were calculated after fitting a logistic curve to 8-point dose response data, using doses between 2 and 100 μM with 1.75 fold steps. If a concentration of 2 μM already inhibited nitrification, the IC50 value could not be calculated. In that case, IC50 values represent the dose that gives inhibition closest to 50%.
The compounds of formula (I) and (II) were tested for their nitrification inhibition effect in two screens, using assays with the nitrifying bacteria N. europaea and N. multiformis. […]

[1] = system: NH3 or NH2OH oxidation in N. europaea cells; test: Nitrosomonas europaea ammonia vs. hydroxylamine oxidation assay; format: cell-based; settings: for Nitrification from NH2OH (% compared to DMSO): 1 mM NH2OH as N-source; for Nitrification from NH2OH (% compared to DMSO) / Nitrification from NH3 (% compared to DMSO): compounds 50 μM, NO2- after 30 min; for Nitrification from NH3 (% compared to DMSO): NH4+ 1 mM as N-source
Method: Two days old, late-log phase cultures with a NO2− concentration between 10 and 20 mM were washed 3 times in fresh growth medium (without N) and finally 4 times overconcentrated via centrifugation (4000 rpm, 15 min, 4° C.). Transparent, flat bottom 96-well plate (Cat. No. 353072, Falcon® 96 Well Clear Flat Bottom Microplate, Corning®) were filled with 150 μl culture per well using a dispenser (Multidrop™ Combi Reagent Dispenser, Thermo Scientific™). Compounds (final concentration 50 μM) were added in triplicate to the multi-well plate by use of a Tecan robot (Freedom EVO®, Tecan). Thiourea (positive control for inhibition of NH3 oxidation—final concentration 100 μM) and phenylhydrazine hydrochloride (positive control for inhibition of NH2OH oxidation—final concentration 1 mM) were added to the outer two columns. Each plate was made in duplicate to add either 500 μM (NH4)2SO4 (final [NH4+]=1 mM) or 1 mM NH2OH. All plates were separately wrapped in Parafilm. Stacks of 4 plates were put on top of a 96-well plate filled with 100 μl MilliQ per well, covered with aluminum foil and shaken (±150 rpm) at 28° C. To prevent read-out of secondary effects on NO2− production, NO2− was measured only 30 min later. For this, the samples were first 2 times diluted by pipetting 15 μl in 15 μl fresh growth medium in 96-well intermediate plates (Cat. Ref. PCR-96-FS-C, 96-well PCR Microplate, Axygen®) to then mix 15 μl of the diluted samples with 15 μl Griess reagent in the wells of a transparent, flat bottom 384-well plate (Cat. No. X^7001, Low Profile Microplate, Molecular Devices) that was measured spectrophotometrically at 540 nm (EnVision, Perkin Elmer®).
To get insights on the targeted metabolic pathway and to discriminate between compounds that specifically affect NH3 oxidation or that affect another pathway, three representative novel nitrification inhibitors (Examples 1, 5 and 6) were tested in the “ammonia vs hydroxylamine oxidation assay” in which NO2− production from NH3 was compared with NO2− production from NH2OH.

Nitrosomonas europaea = test: Nitrification inhibition assay with Nitrosomonas europaea (nitrite level after 24 h); format: cell-based; settings: for IC50 / activity at 100 µM: Nitrosomonas europaea; for IC50: 8-point dose response, 2 to 100 μM, read-out: IC50; for activity at 100 µM: tested concentration 100 μM, 24 h, normalized to DMSO (100%) and 100 μM DMP (0%), read-out: Nitrification (%) at tested concentration (0 = maximum activity)
Method: as §1, §2
To prepare a high-throughput nitrification inhibition assay using N. europaea, late-log phase cultures were subcultivated two days before the assay. Just before the assay, the cultures were 5 times overconcentrated with fresh growth medium after centrifugation (4000 rpm, 15 min, 5° C.) in 50 mL centrifuge tubes (Cat. No. 430829, CentriStar™ Conical Centrifuge Tubes, Corning®). Per batch, all the cultures were pooled in one sterile Schott bottle and subsequently dispensed into 384-well plates (Cat. No. 781086, CELL-STAR® plate, Greiner Bio-One; 50 μl/well) by use of a dispenser (Multidrop™ Combi Reagent Dispenser, Thermo Scientific™) that was first flushed with growth medium. Specifically for the high-throughput screen for new nitrification inhibitors, 0.5 μl of 99.99% DMSO (negative control—final concentration 1%) was added to the outer two columns on the left side of the plate and 0.5 μl of 10 mM DMP (3,4-dimethylpyrazole, positive control—final concentration 100 μM) was added to the outer two columns on the right side manually. Finally, 0.5 μl of candidate nitrification inhibitors (5 mM stock solutions in 99.99% DMSO—final concentration 50 μM) were added to the central wells using a pin tool on a Tecan robot (Freedom EVO®, Tecan). In between additions, the pins were washed in sequence with 99.5% DMSO, MilliQ water and 100% ethanol and air-dried. All plates were separately wrapped in Parafilm. Stacks of 4 plates were put on top of a 96-well plate filled with 100 μl MilliQ per well, covered with aluminum foil and shaken at 150 rpm at 28° C. 24 h later, NO2− production was assessed. For this, the samples were first 200 times diluted by pipetting 1.5 μl of samples into 300 μl of fresh growth medium in intermediate plates (Cat. No. 353077, Falcon® 96-well Clear Round Bottom Microplate, Corning®), to then mix 15 μl of the diluted samples with 15 μl Griess reagent in the wells of a transparent, flat bottom 384-well plate (Cat. No. X^7001, Low Profile Microplate, Molecular Devices) that was measured spectrophotometrically at 540 nm (EnVision, Perkin Elmer®).
as §3
IC50 values, that is the concentration that inhibits 50% of the nitrification, were calculated after fitting a logistic curve to 8-point dose response data, using doses between 2 and 100 μM with 1.75 fold steps. […]

Merelbeke soil = test: In soil nitrification inhibition assay, Merelbeke soil; settings: for inhibition of ammonium consumption in soil, in words: 50 μM, one week of treatment; for inhibition at 50 µM: soil, 168 h, 7 days, read-out: % Nitrification inhibition in soil (7 days of incubation, Merelbeke soil)
Method: Top layer (0 to 10 cm) soil samples were collected from different fields in Belgium (Merelbeke and Moorslede). Vegetation on the field trial was removed and samples were taken from different plots. All soil samples were mixed and sieved (mesh size 2.8 mm) to filter large debris and homogenize soil. The soil was stored at 5° C. in plastic containers covered with Saran foil to prevent changes in microbial community composition and to maintain the original soil water content. Soil water content was determined by drying 20 g soil for 48 h in a 60° C. oven and measuring weight before and after drying. Based on the soil water content (±20%), compound solutions were prepared so that addition of 200 μl compound and 200 μl NH4Cl solution would result in a final compound concentration of 50 μM and a final NH4^+ concentration of 10 mM. Per treatment, 5 small pots were filled with 20 g soil. Next, the soil was treated first with the respective compound solution and then with the NH4Cl solution. Per tray, positive (50 μM DMP) and negative controls (DMSO) were included. Pots were incubated at 21° C. (6 a.m. to 10 p.m. light) for 7 days. Demineralized water was added to the soil every 2 to 3 days to a soil weight of 20 g. In the end, each sample of 20 g soil was dissolved in 100 ml 1M KCl and shaken for 1 hour, followed by filtration through Whatmann® paper. The filtrate was used to measure pH, NH4^+ and NO3− concentrations. The nitrification inhibitors were applied in a nitrification inhibition assay using agricultural soil. In practice, ammonium with or without the new nitrification inhibitors was added to soil from a field in Merelbeke (Belgium). The ammonium level was measured at the start of the experiment and at the end of the experiment, after one week of incubation. A nitrification inhibition percentage was calculated by comparing the reduction in ammonium level with the nitrification inhibitor to the reduction in ammonium without the nitrification inhibitor. Ammonium was added to soil with a high nitrification activity and treated with the nitrification inhibitors (final concentration of 50 μM). […] This validates that the new nitrification inhibitors are effectively inhibiting ammonia oxidation by soil communities.

Compound	nitrification inhibition, in words (Nitrosospira multiformis)	IC50 (Nitrosospira multiformis) [µM]	activity at 100 µM (Nitrosospira multiformis) [%]	Nitrification from NH2OH (% compared to DMSO) [1] [%]	Nitrification from NH3 (% compared to DMSO) [1] [%]	nitrification inhibition, in words (Nitrosomonas europaea)	IC50 (Nitrosomonas europaea) [µM]	activity at 100 µM (Nitrosomonas europaea) [%]	inhibition of ammonium consumption in soil, in words (Merelbeke soil)	inhibition at 50 µM (Merelbeke soil) [%]	effect on hydroxylamine (NH2OH) oxidation, in words ([1]; 30 minutes assay, listed as DMP)
CN(Cc1c(F)cccc1Cl)CN1CCOC1=S [Example 6, 3-[[(2-chloro-6-fluorophenyl)methyl-methylamino]methyl]-1,3-oxazolidine-2-thione]	strong nitrification inhibition	< 3.5	0	80	18	strong nitrification inhibition	14	0	–	–	–
CCC1CCCCN1C(=O)CSC1=NCCS1 (stereo not drawn) [Example 9]	–	< 6	0	–	–	–	> 100	68	significant inhibition	10	–
O=C(CSC1=NCCS1)N1CCCC1 [Example 10]	–	< 10	6	–	–	–	> 100	81	significant inhibition	7	–
Cc1c[nH]nc1C [Example C1, 3,4-dimethylpyrazole, reference compound]	–	14	0	56	27	–	6	0	–	–	reduced NH2OH oxidation; also recorded: limited effect
